Bridge positions count the residues as written; N and C are the ends. Ends that are not written are not given here. Peptide text beside a SMILES is read from it.
What was measured:
HCT116 p53-null cells [1] = assay: Colony formation assay after irradiation; assay type: cell-based, human; settings: 0-4 Gy, 500 μM, vs PBS
Experimental: (§1) HCT116 and HCT116 p53-null cells were plated in 6-well dishes at 1×10^4 cells/well followed by treatment for 7 d with vehicle or cell permeable cGMP (8-Br-cGMP, 500 μM). Media containing different treatments were changed every other day. After exposure to radiation (0-4 Gy) cells were trypsinized and plated in 6-well dishes at different densities depending on the potency of the treatments (10^4 cells/well for HCT116 exposed at 0, 1 and 2 Gy; 4×10^4 cells/well for HCT116 p53-null exposed at 0, 1 and 2 Gy; 50×10^4 cells/well for HCT116 exposed at 3 and 4 Gy; 200×10^4 cells/well for HCT116 p53-null exposed at 3 and 4 Gy). […] The number of colonies, defined as >50 cells/colony were counted, and the surviving fraction was calculated as the ratio of the number of colonies in the treated sample to the number of colonies produced by cells that were not irradiated. […]
(§2) Statistical significance was determined by unpaired two-tailed Student's t test unless otherwise indicated. […] Survival and disease-free survival were analyzed by Kaplan-Meier analysis. Body weight was analyzed using a frailty model combining a segmented linear longitudinal model of body weight, a log-normal model for survival time, and a log-normal model for random break point for body weight (inflection point). […] Colony formation was analyzed by a pairwise comparison in four treatments with isotherm slopes by linear regression.

HCT116 cells (parental) = assay: Colony formation assay after irradiation; assay type: cell-based, human; settings: parental HCT116, 0-4 Gy, 500 μM for 7 d before and after irradiation, vs PBS
Experimental: as §1, §2

[2] = test system: HCT116 human colon carcinoma cells (parental); assay: Anaphase bridge index and aneuploidy after 5 Gy; assay type: cell-based; settings: pretreatment 500 μM
Experimental: (§3) Cells preconditioned with 8-Br-cGMP, or control cells, were irradiated (5 Gy), then seeded on coverslips in 24-well plates (5×10^4 cells per well). ABI and aneuploidy were quantified 2 d after irradiation.
(§4) ABI: Cells were fixed in 4% PFA and stained with DAPI. Anaphase cells were analyzed and abnormal anaphase cells were calculated under a fluorescence microscope. More than 200 anaphase cells were analyzed in each treatment group in each independent experiment. Any abnormal anaphase cells with anaphase bridges or anaphase lag showing extended chromosome bridging between two spindle poles were enumerated and the ABI was calculated as percentage of abnormal anaphase cells over total anaphase cells.
(§5) Aneuploidy: Cells were fixed in 4% PFA and stained with DAPI, and immunofluorescence stains were performed using α/β-tubulin-specific antibodies and […] γ-tubulin antibodies, detected with Alexa Fluor® 555 or Alexa Fluor® 488 labeled secondary antibodies from Invitrogen. […] Abnormal anaphase chromatids were counted if cells contained more than two centrosomes or two centrosomes located in the same direction to the spindle midzone separated from kinetochores at the poles.

p53 = assay: Immunoblot of total and phosphorylated p53 in irradiated HCT116 cells; assay type: cell-based, human; settings: 5 Gy radiation, 500 μM
[3] = test system: intestinal stem cells (ISCs); assay: Quantification of crypt Lgr5+GFP+ and Bmi1+ stem cells in Gucy2c−/− mice; assay type: in vivo, mouse
Experimental: (§6) Gucyc^−/− (Glucy2^ctm1Gar[63]), Lgr5-EGFP-CreERT2 (B6.129P2-Lgr5^tm1(cre/ERT2)Cle/J; Jax, Bar Harbor, Me., #008875) and Rosa-STOP^fl-LacZ (B6.129S4-Gt(ROSA)26Sor^tm1Sor/J; Jax #003474) transgenic mouse lines were interbred to generate offspring with the desired alleles. All mice were co-housed and Gucy2c^+/+ (wild type) littermates with the appropriate alleles were used as controls. Tissues were harvested from adult mice (12-16 wk of age). Cre was induced with a single 200 μL dose of tamoxifen (Sigma; Billerica, Mass.; T5648) in sunflower oil at 10 mg/ml. Tauroursodeoxycholic Acid (TUDCA, Millipore 580549) treatments were administered daily for 3 d at 100 mg/kg/day intraperitoneally. Mice were exposed to a single 10 Gy dose of whole-body γ-irradiation with a PanTak, 310 kVe x-ray machine and tissues were harvested at noted time points after irradiation. In some experiments, mice were gavaged daily for 7 d with 100 μL of 20 mM 8-cpt-cGMP. Each point in a graph (n) represents one mouse unless otherwise noted. All animal protocols were approved by the Thomas Jefferson University Institutional
Intestines were harvested from mice, fixed in formalin, and embedded in paraffin as previously described. Sections (4 μM) were cut then rehydrated in a sequential ethanol-to-water bath and stained with hematoxylin and eosin or antigen-specific primary and secondary antibodies. Primary antibodies for immunofluorescence included: anti-GFP, anti-Bmi1, and anti-GRP78 (Abcam; Cambridge, M A); anti-phospho VASP Ser239 (Sigma; Billerica, Mass.); and anti-GUCY2C (prepared and validated in-house). Secondary antibodies were from Life Technologies (Waltham, Mass.) and specific to the primary hosts. Tyramide signal amplification was used to detect GUCY2C; secondary antibodies conjugated to horseradish peroxidase were from Jackson immunoresearch Laboratories (cat #115-035-206 and #111-036-046, 1:1000 dilution), and fluorescein-conjugated tyramine was prepared from tyramine HCl (cat #T2879, Sigma) and NHS-fluorescein (cat #46410, Thermo Scientific) as described. For visualization of Rosa-LacZ lineage tracing, tamoxifen-induced recombinant Cre intestines were prepared as described previously. At least 4 intestinal circumference sections were evaluated per mouse.

Grp78 (BiP) = assay: Crypt ER stress, Grp78 (BiP) expression; assay type: in vivo, mouse; settings: Gucy2c−/− mice
Experimental: as §6
Intestines were harvested from mice, fixed in formalin, and embedded in paraffin as previously described. […] At least 4 intestinal circumference sections were evaluated per mouse.

p53-Mdm2 interaction = assay: Immunoprecipitation of p53-Mdm2 in irradiated HCT116 cells; assay type: cell-based, human; settings: 5 Gy radiation, IP and Western Blot
Experimental: McCoy's 5A and Dulbecco's Modified Eagle Medium (DMEM) containing 10% fetal bovine serum and other reagents for cell culture were obtained from Life Technologies (Rockville, Md.). 8-Bromoguanosine 3′, 5′-cyclic monophosphate (8-Br-cGMP), a cell-permeant analog of cGMP, was obtained from Sigma (St. Louis, Mo.) and 500 μM was used in all experiments (18,20,25,26,34).
Mouse IgG (5 μg, cat. #10400C, Invitrogen) and rabbit IgG (5 μg, cat. #10400C, Invitrogen) were isotype controls for immunoprecipitation.

HCT116 p53-null cells [4] = assay: Anaphase bridge index and aneuploidy after 5 Gy; assay type: cell-based, human; settings: pretreatment 500 μM
Experimental: as §3, §4, §5

intestinal crypts = assay: Ex vivo enteroid formation from crypts; assay type: cell-based, mouse; settings: crypts of Gucy2c+/+ mice, oral linaclotide
Experimental: Crypt isolation for subsequent analyses (enteroid assay, florescence-activated cell sorting (FACS), immunoblot) was performed using a variation of the chelation dissociation method. Briefly, intestines were harvested, villi were gently scraped off for the small intestine, and tissues were minced and incubated in a 10 mM EDTA/Ca-free, Mg-free Hank's Balanced Salt Solution (HBSS) on ice for a total of 40 min, Throughout this time, solutions were intermittently shaken by hand at the speed of two shakes/second, supernatant was disposed a total of six times, and fresh EDTA/HBSS was added after each disposal. Tissue was incubated undisturbed for 30 min on ice followed by vigorous pipetting with a 10 mL pipet to dissociate the remaining crypts. Crypts were filtered through a […] strainer and pelleted. For enteroid culture, the same number of crypts for each genotype (ranging from 300-1500 crypts/well) were resuspended in a matrigel droplet (BD, 354230), pipetted briefly with a 1000 μL micropipette, plated in 30 μL, and overlaid with 350 μL of intesticult media (Stem Cell Technologies, Vancouver. Canada: 06005). For FACS, crypts were incubated in 0.25% trypsin (Thermo Scientific, Philadelphia, Pa.; 15050065) at 37° C. until a single cell suspension was obtained (not more than 10 min). Cells were then filtered a second time using a 40 μM strainer and kept in EDTA solution for sorting.

[5] = cited from earlier work
[6] = test system: patients with irritable bowel syndrome; settings: oral; cited from earlier work
[7] = target: guanylate cyclase (ST receptors) (Homo sapiens, UniProt P25092); settings: relative to native ST; cited from earlier work
[8] = test system: irradiated intestinal tissue; settings: mice lacking genes encoding GCC or uroguanylin; cited from earlier work

guanylate cyclase (ST receptors), sequence (P25092 24-1073): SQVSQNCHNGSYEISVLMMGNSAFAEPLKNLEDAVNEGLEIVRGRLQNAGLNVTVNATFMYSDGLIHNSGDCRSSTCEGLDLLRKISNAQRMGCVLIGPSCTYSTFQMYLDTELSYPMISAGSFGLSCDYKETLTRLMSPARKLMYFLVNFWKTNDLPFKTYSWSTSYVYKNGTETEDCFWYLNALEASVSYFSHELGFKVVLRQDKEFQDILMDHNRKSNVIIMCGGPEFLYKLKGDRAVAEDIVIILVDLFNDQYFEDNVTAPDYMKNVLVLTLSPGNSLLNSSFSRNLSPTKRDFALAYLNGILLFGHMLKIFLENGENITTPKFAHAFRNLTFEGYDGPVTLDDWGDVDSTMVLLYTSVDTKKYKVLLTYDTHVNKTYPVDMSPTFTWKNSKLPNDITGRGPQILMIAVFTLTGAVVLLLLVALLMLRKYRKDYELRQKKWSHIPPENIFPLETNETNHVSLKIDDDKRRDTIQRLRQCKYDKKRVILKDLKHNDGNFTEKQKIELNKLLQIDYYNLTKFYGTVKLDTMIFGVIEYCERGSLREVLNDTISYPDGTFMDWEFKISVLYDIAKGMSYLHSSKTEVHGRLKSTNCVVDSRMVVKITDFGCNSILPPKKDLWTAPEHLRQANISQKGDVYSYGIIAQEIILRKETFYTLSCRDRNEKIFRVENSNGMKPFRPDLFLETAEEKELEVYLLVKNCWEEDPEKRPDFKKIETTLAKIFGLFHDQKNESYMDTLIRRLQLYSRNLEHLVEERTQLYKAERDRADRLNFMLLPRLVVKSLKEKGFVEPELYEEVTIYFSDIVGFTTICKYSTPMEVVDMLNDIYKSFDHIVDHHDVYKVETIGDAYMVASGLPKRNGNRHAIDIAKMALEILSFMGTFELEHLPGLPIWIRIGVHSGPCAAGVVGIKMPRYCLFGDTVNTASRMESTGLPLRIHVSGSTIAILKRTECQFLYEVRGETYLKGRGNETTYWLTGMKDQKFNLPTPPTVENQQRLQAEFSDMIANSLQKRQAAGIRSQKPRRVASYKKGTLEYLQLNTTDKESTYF

Molecule: Nc1nc2c(nc(Br)n2[C@@H]2O[C@@H]3COP(=O)(O)O[C@H]3[C@H]2O)c(=O)[nH]1 [8-Br-cGMP, 8-Bromoguanosine 3′, 5′-cyclic monophosphate]
- cytogenetic toxicity induced by increasing doses of radiation, quantified by colony formation (HCT116 p53-null cells [1]): not significant
- cytogenetic toxicity induced by increasing doses of radiation, quantified by colony formation (HCT116 cells (parental)): reduced
- chromosomal instability quantified by anaphase bridge index [2]: reduced
- chromosomal instability quantified by centrosome counts (aneuploidy) [2]: reduced
- phosphorylated p53 (p53): increased
- total p53 (p53): increased
- Bmi1+ cells in crypts [3]: comparable to those in Gucy2c^+/+ mice
- Lgr5+GFP+ cells in crypts [3]: comparable to those in Gucy2c^+/+ mice
- BiP (Grp78) expression in crypts (Grp78 (BiP)): mimicked
- p53-Mdm2 interaction (p53-Mdm2 interaction): disrupting
- p53 activation (p53-Mdm2 interaction): increased
- chromosomal instability quantified by anaphase bridge index (HCT116 p53-null cells [4]): insensitive
- chromosomal instability quantified by centrosome counts (aneuploidy) (HCT116 p53-null cells [4]): insensitive

Molecule: C[C@H](CCC(=O)NCCS(=O)(=O)O)[C@H]1CC[C@H]2[C@@H]3[C@@H](O)C[C@@H]4C[C@H](O)CC[C@]4(C)[C@H]3CC[C@]12C [TUDCA, tauroursodeoxycholic acid]
- Bmi1+ cells in crypts [3]: restored
- Lgr5+GFP+ cells in crypts [3]: restored
- BiP (Grp78) expression in crypts (Grp78 (BiP)): restored normal BiP expression

Molecule: C[C@@H]1NC(=O)[C@@H]2CCCN2C(=O)[C@H](CC(N)=O)NC(=O)[C@@H]2CSSC[C@H](N)C(=O)N[C@H]3CSSC[C@H](NC1=O)C(=O)N[C@@H]([C@@H](C)O)C(=O)NCC(=O)N[C@H](C(=O)N[C@@H](Cc1ccc(O)cc1)C(=O)O)CSSC[C@H](NC(=O)[C@H](Cc1ccc(O)cc1)NC(=O)[C@H](CCC(=O)O)NC3=O)C(=O)N2 [linaclotide] (H-CCEYCCNPACTGCY-OH; disulfide 1-6, 2-10, 5-13)
- efficiency of enteroid formation (intestinal crypts): amplified
- oral bioavailability or bioactivity outside the GI tract [5]: negligible
- abdominal pain [6]: relieve
- constipation [6]: improve

Molecule: CC(C)C[C@H](NC(=O)[C@@H]1CSSC[C@@H]2NC(=O)[C@H](CC(C)C)NC(=O)[C@H](CCC(=O)O)NC(=O)[C@@H](NC(=O)[C@H](CCC(=O)O)NC(=O)[C@H](CC(=O)O)NC(=O)[C@@H](N)CC(N)=O)CSSC[C@H](NC(=O)[C@H](C)NC(=O)[C@H](C(C)C)NC(=O)[C@H](CC(N)=O)NC(=O)[C@H](C(C)C)NC2=O)C(=O)N[C@@H]([C@@H](C)O)C(=O)NCC(=O)N1)C(=O)O [plecanatide] (H-NDECELCVNVACTGCL-OH; disulfide 4-12, 7-15)
- oral bioavailability or bioactivity outside the GI tract [5]: negligible
- abdominal pain [6]: relieve
- constipation [6]: improve

Molecule: Guanylin: 15 amino acid peptide from mammalian intestine, about 50% sequence homology to ST; endogenous GCC agonist (PGTCEICAYAACTGC; ends and bridges not checked; cysteine pairing not given here; UniProt Q02747 101-115, looked up)
- activates guanylate cyclase at a level less than native ST [7]: 10- to 100 fold

Molecule: cGMP
- level of apoptosis in irradiated intestinal tissue [8]: ameliorated
